Assay results: PubChem BioAssay (NCI)
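Exposure lasted 48 hours, with cells grown in 96-well plates and compounds tested at five concentrations. TGI marks complete inhibition of growth.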

Tests used:
Assay in all cases: NCI-60 cell line screen, 48 h
HOP-62 NSCLC = test system: HOP-62 NSCLC
MDA-N = test system: MDA-N
A549 NSCLC = test system: A549 NSCLC
HCC-2998 colon = test system: HCC-2998 colon
SF-268 CNS = test system: SF-268 CNS
UACC-62 melanoma = test system: UACC-62 melanoma
MDA-MB-231 breast = test system: MDA-MB-231 breast
786-0 renal = test system: 786-0 renal
NCI-H226 lung = test system: NCI-H226 lung
OVCAR-5 ovarian = test system: OVCAR-5 ovarian
K-562 leukemia = test system: K-562 leukemia
HS 578T breast = test system: HS 578T breast
M14 melanoma = test system: M14 melanoma
TK-10 renal = test system: TK-10 renal
MOLT-4 leukemia = test system: MOLT-4 leukemia
ACHN renal = test system: ACHN renal
HT29 colon = test system: HT29 colon
MCF7 breast = test system: MCF7 breast
OVCAR-8 ovarian = test system: OVCAR-8 ovarian
NCI/ADR-RES ovarian = test system: NCI/ADR-RES ovarian

SMILES	TGI (HOP-62 NSCLC)	TGI (MDA-N)	TGI (A549 NSCLC)	TGI (HCC-2998 colon)	TGI (SF-268 CNS)	TGI (UACC-62 melanoma)	TGI (MDA-MB-231 breast)	TGI (786-0 renal)	TGI (NCI-H226 lung)	TGI (OVCAR-5 ovarian)	TGI (K-562 leukemia)	TGI (HS 578T breast)	TGI (M14 melanoma)	TGI (TK-10 renal)	TGI (MOLT-4 leukemia)	TGI (ACHN renal)	TGI (HT29 colon)	TGI (MCF7 breast)	TGI (OVCAR-8 ovarian)	TGI (NCI/ADR-RES ovarian)
CC(=O)NCCCCN(CCCNC(C)=O)C(=O)CNS(=O)(=O)c1cccc2c(N(C)C)cccc12	> 100 µM	> 100 µM	> 100 µM	> 100 µM	> 100 µM	> 100 µM	> 100 µM	> 100 µM	> 100 µM	> 100 µM	> 100 µM	> 100 µM	> 100 µM	> 100 µM	> 100 µM	> 100 µM	> 100 µM	> 100 µM	–	–
CC1(C)C2CCC1(C)C(OC(=O)/C=C/C(=O)OC1CC3CCC1(C)C3(C)C)C2 (configuration not stated)	> 100 µM	> 100 µM	> 100 µM	> 100 µM	> 100 µM	> 100 µM	> 100 µM	> 100 µM	–	> 100 µM	> 100 µM	> 100 µM	> 100 µM	> 100 µM	45.9 µM	> 100 µM	> 100 µM	67.4 µM	> 100 µM	> 100 µM
Cc1cc(C)nc(NS(=O)(=O)c2ccc(Nc3c4ccccc4nc4c(C(=O)NC(CO)(CO)CO)cccc34)cc2)n1	> 100 µM	68.8 µM	73.2 µM	36.1 µM	> 100 µM	> 100 µM	> 100 µM	> 100 µM	–	88.4 µM	> 100 µM	> 100 µM	> 100 µM	68.9 µM	> 100 µM	> 100 µM	70.8 µM	> 100 µM	> 100 µM	> 100 µM
C/C=C(/C)C(=O)O[C@H]1[C@H]2[C@@H]([C@@H](OC(C)=O)[C@H](C)C(=O)[C@@]34C[C@@H](C)C(=O)[C@]3(/C=C(\C)[C@H]1OC(C)=O)O4)C2(C)C	12 µM	4.94 µM	–	8.53 µM	> 20 µM	6.99 µM	9.32 µM	5.5 µM	6.56 µM	7.77 µM	8.43 µM	19.7 µM	5.22 µM	7.61 µM	6.46 µM	7.05 µM	–	5.98 µM	6.54 µM	8.03 µM
CCC/C(Cl)=N/OC(=O)Nc1cc(C(F)(F)F)ccc1OC	32.2 µM	25 µM	34.6 µM	30.6 µM	29.8 µM	28.8 µM	27 µM	18.6 µM	30.8 µM	32.1 µM	–	> 72.2 µM	21.4 µM	32.5 µM	6.01 µM	26.1 µM	44.1 µM	27.7 µM	29.8 µM	33.1 µM
COc1ccc2nc3c([N+](=O)[O-])ccc4c3c(c2c1)NCCN4CCN(C)C	3.44 µM	1.99 µM	2.19 µM	–	2.41 µM	1.96 µM	1.88 µM	1.79 µM	7.13 µM	9.89 µM	> 10 µM	3.91 µM	1.71 µM	4.75 µM	7.67 µM	1.66 µM	2.34 µM	> 10 µM	> 10 µM	3.25 µM
CCOC(=O)c1ccc(C(=O)n2ccnc2)[nH]1	> 100 µM	> 100 µM	> 100 µM	> 100 µM	> 100 µM	> 100 µM	> 100 µM	> 100 µM	> 100 µM	> 100 µM	> 100 µM	> 100 µM	> 100 µM	> 100 µM	> 100 µM	> 100 µM	–	> 100 µM	> 100 µM	> 100 µM
Cc1cc(=O)oc2c(CNC(CO)C(=O)O)c(O)ccc12 (configuration not stated)	> 100 µM	> 100 µM	> 100 µM	–	> 100 µM	> 100 µM	> 100 µM	> 100 µM	> 100 µM	> 100 µM	> 100 µM	> 100 µM	> 100 µM	> 100 µM	> 100 µM	> 100 µM	> 100 µM	> 100 µM	> 100 µM	> 100 µM
CCCC1CC(=O)NC(=O)C1C(=O)OC(C)(C)C (configuration not stated)	> 100 µM	> 100 µM	–	> 100 µM	> 100 µM	> 100 µM	> 100 µM	> 100 µM	> 100 µM	> 100 µM	> 100 µM	> 100 µM	–	> 100 µM	> 100 µM	> 100 µM	> 100 µM	> 100 µM	> 100 µM	> 100 µM
O=C(NCCC1CN(C(=O)OCc2ccccc2)c2ccccc21)OCc1ccccc1 (configuration not stated)	> 100 µM	> 100 µM	> 100 µM	> 100 µM	> 100 µM	> 100 µM	> 100 µM	> 100 µM	–	> 100 µM	> 100 µM	> 100 µM	> 100 µM	> 100 µM	> 100 µM	> 100 µM	> 100 µM	> 100 µM	> 100 µM	> 100 µM
CC1C2CC(CC2(C)O)C1(C)C (configuration not stated)	> 100 µM	> 100 µM	> 100 µM	> 100 µM	> 100 µM	> 100 µM	> 100 µM	> 100 µM	> 100 µM	> 100 µM	> 100 µM	> 100 µM	> 100 µM	> 100 µM	> 100 µM	> 100 µM	> 100 µM	> 100 µM	> 100 µM	–
COc1ccc2c(=O)cc(-c3ccc(OC)c(OC)c3OC)oc2c1	> 100 µM	> 100 µM	> 31.6 µM	> 100 µM	> 100 µM	> 100 µM	> 100 µM	> 100 µM	> 100 µM	> 100 µM	> 100 µM	> 100 µM	> 100 µM	> 100 µM	> 100 µM	> 100 µM	> 100 µM	–	> 100 µM	> 100 µM
COc1ccc2[nH]c3c(c2c1)CC(=O)N1CCCC(CC3O)C1 (configuration not stated)	–	> 100 µM	> 100 µM	> 100 µM	> 100 µM	> 100 µM	> 100 µM	> 100 µM	> 100 µM	–	> 100 µM	> 100 µM	–	> 100 µM	–	> 100 µM	> 100 µM	> 100 µM	> 100 µM	> 100 µM
CC(C)(C)C1CCC2c3c([nH]c4ccccc34)C3C(=O)N(c4ccccc4[N+](=O)[O-])C(=O)C3C2C1 (configuration not stated)	21.5 µM	43.9 µM	33.9 µM	18.2 µM	–	28.2 µM	27.2 µM	28.9 µM	57.2 µM	50.5 µM	27.8 µM	49.5 µM	33.8 µM	43.3 µM	–	61.3 µM	20.1 µM	39.1 µM	> 100 µM	> 100 µM
O=c1[nH]c(N/N=C\C(=N/Nc2nc3ccccc3c(=O)[nH]2)C(O)C(O)C(O)CO)nc2ccccc12 (configuration not stated)	> 100 µM	> 100 µM	> 100 µM	–	> 100 µM	> 100 µM	> 100 µM	> 100 µM	> 100 µM	> 100 µM	> 100 µM	> 100 µM	> 100 µM	> 100 µM	> 100 µM	> 100 µM	> 100 µM	> 100 µM	> 100 µM	> 100 µM
C/C=C/C=C\C=C/C(O)C(C)C(CCC(C)C1OC(=O)C=CC1C)OP(=O)(O)O (configuration not stated)	0.786 µM	1.32 µM	3.83 µM	–	2.03 µM	1.11 µM	> 71.1 µM	1.51 µM	2.02 µM	0.574 µM	0.905 µM	4.28 µM	0.685 µM	1.91 µM	0.613 µM	1.26 µM	1.08 µM	0.559 µM	1.26 µM	2.88 µM
CN(C)Cc1cc(C(=O)/C=C/c2ccc(Cl)c(Cl)c2)cc(CN(C)C)c1O	6.45 µM	10.9 µM	8.47 µM	12.5 µM	13.2 µM	–	14.3 µM	3.09 µM	13.5 µM	20.9 µM	4.74 µM	8.74 µM	4.34 µM	–	10.5 µM	11.6 µM	2.79 µM	12.3 µM	4.9 µM	7.85 µM
O=c1cc(NNCc2ccccc2)[nH]c(=O)[nH]1	> 100 µM	> 100 µM	> 100 µM	> 100 µM	> 100 µM	–	> 100 µM	> 100 µM	> 100 µM	> 100 µM	> 100 µM	> 100 µM	> 100 µM	> 100 µM	> 100 µM	> 100 µM	> 100 µM	> 100 µM	> 100 µM	> 100 µM
Oc1[nH]c(=S)[nH]c1/C=C1/C(c2ccccc2)=Nc2ccccc21	29.1 µM	28.4 µM	–	36.9 µM	> 100 µM	26.4 µM	33.5 µM	28.4 µM	35.8 µM	36.1 µM	33.7 µM	42.4 µM	–	44.5 µM	32.1 µM	78 µM	30.5 µM	28.5 µM	28.8 µM	51.7 µM
CC(C)(Oc1ccc(Cl)cc1)C(=O)N(C(=O)N1CCCCC1)c1ccccc1	–	> 100 µM	–	–	56.7 µM	27.5 µM	25.5 µM	27.6 µM	51 µM	36.7 µM	> 100 µM	58.5 µM	52.1 µM	–	84.8 µM	28.1 µM	66.1 µM	47.3 µM	31.4 µM	37.4 µM
N#CC(C#N)=C/C=C/c1c(Cl)cccc1Cl	8.87 µM	3.23 µM	7.22 µM	3.34 µM	4.07 µM	2.91 µM	3.52 µM	3.35 µM	7.05 µM	–	8.56 µM	5.55 µM	3.06 µM	6.24 µM	9.01 µM	3.19 µM	3.25 µM	7.04 µM	3.48 µM	4.98 µM
CSc1nn(C)cc2ncnc1-2	> 100 µM	> 100 µM	> 100 µM	–	> 100 µM	> 100 µM	> 100 µM	> 100 µM	> 100 µM	> 100 µM	> 100 µM	> 100 µM	> 100 µM	> 100 µM	> 100 µM	> 100 µM	> 100 µM	> 100 µM	> 100 µM	> 100 µM
CNC1c2ccccc2C(=O)c2cc3c(cc21)OCCOCCOCCOCCO3 (configuration not stated)	> 100 µM	> 100 µM	> 100 µM	> 100 µM	> 100 µM	–	> 100 µM	> 100 µM	–	> 100 µM	> 100 µM	> 100 µM	> 100 µM	> 100 µM	92.2 µM	> 100 µM	> 100 µM	> 100 µM	> 100 µM	> 100 µM
O=S1(=O)c2ccccc2C(Nc2ccccc2)N1c1ccccc1 (configuration not stated)	> 100 µM	> 100 µM	> 100 µM	> 100 µM	> 100 µM	> 100 µM	> 100 µM	> 100 µM	> 100 µM	> 100 µM	> 100 µM	> 100 µM	–	> 100 µM	> 100 µM	> 100 µM	> 100 µM	> 100 µM	> 100 µM	> 100 µM
C/C(N)=C/C(=O)c1[nH]c(C(=O)O)cc1C1CCN(Cc2ccccc2)C1=O (configuration not stated)	42.8 µM	69.7 µM	> 100 µM	> 100 µM	60.8 µM	55.6 µM	> 100 µM	85 µM	–	> 100 µM	59 µM	> 100 µM	39 µM	> 100 µM	57.9 µM	> 100 µM	> 100 µM	95.8 µM	50.8 µM	51.6 µM
